According to ChEMBL document CHEMBL3861999, “Investigation of C-5 alkynyl (alkynyloxy or hydroxymethyl) and/or N-3 propynyl substituted pyrimidine nucleoside analogs as a new class of antimicrobial agents” (Bioorg Med Chem, 2016):
Values after ≈ are worked out from the molar mass of the structure shown.

Key:
Staphylococcus aureus [1] = assay: Antibacterial activity against Staphylococcus aureus ATCC 25923 after 16 to 20 hrs by broth microdilution method; type: functional; conditions: for MIC: read-out: MIC100
Enterococcus faecalis [2] = assay: Antibacterial activity against Enterococcus faecalis ATCC 29212 after 16 to 20 hrs by broth microdilution method; type: functional; conditions: for MIC: read-out: MIC100
[3] = test system: Mycobacterium tuberculosis; assay: Growth inhibition of Mycobacterium tuberculosis H37Ra at 200 ug/ml after 6 days by microplate alamar blue assay; type: functional; conditions: 144 h, read-out: GI
Mycobacterium avium [4] = assay: Growth inhibition of Mycobacterium avium ATCC 25291 at 200 ug/ml after 6 days by microplate alamar blue assay; type: functional, Mycobacterium avium subsp. avium ATCC 25291; conditions: ATCC 25291, 144 h, read-out: GI
[5] = test system: Mycobacterium tuberculosis; assay: Inhibition of Mycobacterium tuberculosis H37Ra infected in human THP1 cells assessed as reduction in surviving bacteria at 200 ug/ml after 7 days by serial dilution method; type: functional; conditions: THP-1, 168 h
[6] = test system: Mycobacterium tuberculosis; assay: Growth inhibition of Mycobacterium tuberculosis H37Ra at 100 ug/ml after 6 days by microplate alamar blue assay; type: functional; conditions: 144 h, read-out: GI
[7] = test system: Mycobacterium tuberculosis; assay: Growth inhibition of Mycobacterium tuberculosis H37Ra at 75 ug/ml after 6 days by microplate alamar blue assay; type: functional; conditions: 144 h, read-out: GI
[8] = test system: Mycobacterium tuberculosis; assay: Growth inhibition of Mycobacterium tuberculosis H37Ra at 100 ug/ml after 6 days in presence of 0.2 ug/ml of isoniazid by microplate alamar blue assay; type: functional
[9] = test system: Mycobacterium tuberculosis; assay: Growth inhibition of Mycobacterium tuberculosis H37Ra at 75 ug/ml after 6 days in presence of 0.2 ug/ml of isoniazid by microplate alamar blue assay; type: functional
[10] = test system: Mycobacterium tuberculosis; assay: Growth inhibition of Mycobacterium tuberculosis H37Ra assessed as fractional inhibitory concentration index at 100 ug/ml after 6 days in presence of 0.2 ug/ml of isoniazid by microplate alamar blue assay; type: functional
[11] = test system: Mycobacterium tuberculosis; assay: Growth inhibition of Mycobacterium tuberculosis H37Ra assessed as fractional inhibitory concentration index at 75 ug/ml after 6 days in presence of 0.2 ug/ml of isoniazid by microplate alamar blue assay; type: functional
[12] = test system: Mycobacterium tuberculosis; assay: Growth inhibition of Mycobacterium tuberculosis H37Ra at 50 ug/ml after 6 days by microplate alamar blue assay; type: functional; conditions: 144 h, read-out: GI
[13] = Cytotoxicity against African green monkey Vero cells assessed as decrease in cell viability after 3 days by XTT assay; type: toxicity, cell-based; conditions: chlorocebus sabaeus
[14] = test system: Mycobacterium tuberculosis; assay: Growth inhibition of Mycobacterium tuberculosis H37Ra at 50 ug/ml after 6 days in presence of 0.012 ug/ml of isoniazid and 0.002 ug/ml of rifampicin by microplate alamar blue assay; type: functional
[15] = test system: Mycobacterium tuberculosis; assay: Growth inhibition of Mycobacterium tuberculosis H37Ra assessed as fractional inhibitory concentration index at 50 ug/ml after 6 days in presence of 0.012 ug/ml of isoniazid and 0.002 ug/ml of rifampicin by microplate alamar blue assay; type: functional
[16] = test system: Mycobacterium tuberculosis; assay: Growth inhibition of Mycobacterium tuberculosis H37Ra at 50 ug/ml after 6 days in presence of 0.006 ug/ml of isoniazid and 0.002 ug/ml of rifampicin by microplate alamar blue assay; type: functional
[17] = test system: Mycobacterium tuberculosis; assay: Growth inhibition of Mycobacterium tuberculosis H37Ra assessed as fractional inhibitory concentration index at 50 ug/ml after 6 days in presence of 0.006 ug/ml of isoniazid and 0.002 ug/ml of rifampicin by microplate alamar blue assay; type: functional
Escherichia coli [18] = assay: Growth inhibition of Escherichia coli ATCC 25922 at 10 to 200 ug/ml after 16 to 20 hrs by broth microdilution method; type: functional
Salmonella typhimurium = assay: Antibacterial activity against clinical isolates of Salmonella typhimurium after 16 to 20 hrs by broth microdilution method; type: functional, Salmonella enterica subsp. enterica serovar Typhimurium; conditions: for MIC: Salmonella enterica, read-out: MIC100
Pseudomonas aeruginosa [19] = assay: Growth inhibition of Pseudomonas aeruginosa ATCC 13048 at 10 to 200 ug/ml after 16 to 20 hrs by broth microdilution method; type: functional
Escherichia coli [20] = assay: Antibacterial activity against Escherichia coli ATCC 25922 after 16 to 20 hrs by broth microdilution method; type: functional
Pseudomonas aeruginosa [21] = assay: Antibacterial activity against Pseudomonas aeruginosa ATCC 13048 after 16 to 20 hrs by broth microdilution method; type: functional
Mycobacterium avium [22] = assay: Growth inhibition of Mycobacterium avium ATCC 25291 at 2 ug/ml after 6 days by microplate alamar blue assay; type: functional, Mycobacterium avium subsp. avium ATCC 25291; conditions: ATCC 25291, 144 h, read-out: GI
[23] = test system: Mycobacterium tuberculosis; assay: Growth inhibition of Mycobacterium tuberculosis H37Ra at 0.5 ug/ml after 6 days by microplate alamar blue assay; type: functional; conditions: 144 h, read-out: GI
[24] = test system: Mycobacterium tuberculosis; assay: Growth inhibition of Mycobacterium tuberculosis H37Ra at 0.002 ug/ml after 6 days by microplate alamar blue assay; type: functional; conditions: 144 h, read-out: GI
[25] = test system: Mycobacterium tuberculosis; assay: Growth inhibition of Mycobacterium tuberculosis H37Ra at 1 ug/ml after 6 days by microplate alamar blue assay; type: functional; conditions: 144 h, read-out: GI
[26] = test system: Mycobacterium tuberculosis; assay: Inhibition of Mycobacterium tuberculosis H37Ra infected in human THP1 cells assessed as reduction in surviving bacteria at 1 ug/ml after 7 days by serial dilution method; type: functional; conditions: THP-1, 168 h
[27] = test system: Mycobacterium tuberculosis; assay: Growth inhibition of Mycobacterium tuberculosis H37Ra at 0.2 ug/ml after 6 days by microplate alamar blue assay; type: functional; conditions: 144 h, read-out: GI
[28] = test system: Mycobacterium tuberculosis; assay: Growth inhibition of Mycobacterium tuberculosis H37Ra at 0.012 ug/ml after 6 days by microplate alamar blue assay; type: functional; conditions: 144 h, read-out: GI
[29] = test system: Mycobacterium tuberculosis; assay: Growth inhibition of Mycobacterium tuberculosis H37Ra at 0.006 ug/ml after 6 days by microplate alamar blue assay; type: functional; conditions: 144 h, read-out: GI
Staphylococcus aureus [30] = assay: Growth inhibition of Staphylococcus aureus ATCC 25923 at 100 ug/ml after 6 days in presence of 0.1 ug/ml of gentamicin by microplate alamar blue assay; type: functional
Staphylococcus aureus [31] = assay: Growth inhibition of Staphylococcus aureus ATCC 25923 assessed as fractional inhibitory concentration index at 100 ug/ml after 6 days in presence of 0.1 ug/ml of gentamicin by microplate alamar blue assay; type: functional
Enterococcus faecalis [32] = assay: Growth inhibition of Enterococcus faecalis ATCC 29212 at 100 ug/ml after 6 days in presence of 4.5 ug/ml of gentamicin by microplate alamar blue assay; type: functional
Enterococcus faecalis [33] = assay: Growth inhibition of Enterococcus faecalis ATCC 29212 assessed as fractional inhibitory concentration index at 100 ug/ml after 6 days in presence of 4.5 ug/ml of gentamicin by microplate alamar blue assay; type: functional

CN[C@H](CC(C)C)C(=O)N[C@H]1C(=O)N[C@@H](CC(N)=O)C(=O)N[C@H]2C(=O)N[C@H]3C(=O)N[C@H](C(=O)N[C@H](C(=O)O)c4cc(O)cc(O)c4-c4cc3ccc4O)[C@H](O)c3ccc(c(Cl)c3)Oc3cc2cc(c3O[C@@H]2O[C@H](CO)[C@@H](O)[C@H](O)[C@H]2O[C@H]2C[C@](C)(N)[C@H](O)[C@H](C)O2)Oc2ccc(cc2Cl)[C@H]1O [VANCOMYCIN]
MIC (Staphylococcus aureus [1]): 1.5 µg/mL (≈ 1.04 µM) | MIC (Enterococcus faecalis [2]): 4.5 µg/mL (≈ 3.11 µM)

C#CCOc1cn([C@@H]2O[C@H](CO)[C@@H](O)[C@H]2F)c(=O)[nH]c1=O
inhibition of growth at 200 µg/mL [3]: 97% | inhibition of growth at 200 µg/mL (Mycobacterium avium [4]): 0% | inhibition at 200 µg/mL [5]: 50% | inhibition of growth at 100 µg/mL [6]: 3.15% | inhibition of growth at 75 µg/mL [7]: 1.15% | growth inhibition (GI) [8]: 99.15% | growth inhibition (GI) [9]: 81.16% | fractional inhibitory concentration index (FICI) [10]: 0.03 | fractional inhibitory concentration index (FICI) [11]: 0.56 | inhibition of growth at 50 µg/mL [12]: 2.51% | CC50 at 72 h [13]: > 300 µg/mL | growth inhibition (GI) [14]: 97.81% | fractional inhibitory concentration index (FICI) [15]: 0.09 | growth inhibition (GI) [16]: 93.36% | fractional inhibitory concentration index (FICI) [17]: 0.21 | MIC (Staphylococcus aureus [1]): > 200 µg/mL | MIC (Enterococcus faecalis [2]): > 200 µg/mL | growth inhibition (GI) (Escherichia coli [18]): 0% | MIC (Salmonella typhimurium): > 200 µg/mL | growth inhibition (GI) (Pseudomonas aeruginosa [19]): 0%

GENTAMICIN
MIC100 (Staphylococcus aureus [1]): 0.5 µg/mL | MIC100 (Enterococcus faecalis [2]): 12.5 µg/mL | MIC100 (Escherichia coli [20]): 1 µg/mL | MIC100 (Salmonella typhimurium; Salmonella enterica subsp. enterica serovar Typhimurium): 1 µg/mL | MIC100 (Pseudomonas aeruginosa [21]): 1 µg/mL

CC[C@H]1OC(=O)[C@H](C)[C@@H](O[C@H]2C[C@@](C)(OC)[C@@H](O)[C@H](C)O2)[C@H](C)[C@@H](O[C@@H]2O[C@H](C)C[C@H](N(C)C)[C@H]2O)[C@](C)(OC)C[C@@H](C)C(=O)[C@H](C)[C@@H](O)[C@]1(C)O [CLARITHROMYCIN]
inhibition of growth at 2 µg/mL (Mycobacterium avium [22]): 100%

CO[C@H]1/C=C/O[C@@]2(C)Oc3c(C)c(O)c4c(O)c(c(/C=N/N5CCN(C)CC5)c(O)c4c3C2=O)NC(=O)/C(C)=C\C=C\[C@H](C)[C@H](O)[C@@H](C)[C@@H](O)[C@@H](C)[C@H](OC(C)=O)[C@@H]1C [RIFAMPIN]
inhibition of growth at 0.5 µg/mL [23]: 100% | inhibition of growth at 2 µg/mL (Mycobacterium avium [22]): 90% | inhibition of growth at 0.002 µg/mL [24]: 46.2%

NNC(=O)c1ccncc1 [ISONIAZID]
inhibition of growth at 1 µg/mL [25]: 100% | inhibition at 1 µg/mL [26]: > 90% | inhibition of growth at 0.2 µg/mL [27]: 48.8% | inhibition of growth at 0.012 µg/mL [28]: 7.22% | inhibition of growth at 0.006 µg/mL [29]: 1.47%

C#CCOc1cn([C@@H]2O[C@H](CO)[C@@H](O)[C@H]2F)c(=O)n(CC#C)c1=O
inhibition of growth at 200 µg/mL [3]: 35% | inhibition of growth at 200 µg/mL (Mycobacterium avium [4]): 0% | CC50 at 72 h [13]: > 300 µg/mL | MIC (Staphylococcus aureus [1]): 200 µg/mL (≈ 591 µM) | MIC (Enterococcus faecalis [2]): 200 µg/mL (≈ 591 µM) | MIC (Escherichia coli [20]; read-out: MIC100): > 200 µg/mL | MIC (Salmonella typhimurium): > 200 µg/mL | MIC (Pseudomonas aeruginosa [21]; read-out: MIC100): > 200 µg/mL | growth inhibition (GI) (Staphylococcus aureus [30]): 100% | fractional inhibitory concentration index (FICI) (Staphylococcus aureus [31]): 0.7 | growth inhibition (GI) (Enterococcus faecalis [32]): 100% | fractional inhibitory concentration index (FICI) (Enterococcus faecalis [33]): 0.86
